Data taken from PubChem BioAssay AID248 (DTP/NCI, 2004).
Where “and” joins values, the source holds several entries; their conditions need not be identical. Equal entries are not always repeated. Toxic doses and inconclusive results are not listed. No stated cut-off is given here; in the data, active means T/C of 150% or more; inactive means T/C below 125%.

System: L1210 leukemia ip in BDF1 mice, survival T/C
Experiment: NCI In Vivo Anticancer Drug Screen. Data for tumor model L1210 Leukemia (intraperitoneal) in B6D2F1 (BDF1) mice
Conditions: endpoint: mean survival time, higher = longer survival
Outline: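 Read-out is survival time, reported as the treated-group measurement over the vehicle-control measurement.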

[1] = dose: 100.0 mg/kg/injection, schedule: Q01DX009 (ip), vehicle: Klucel (hydroxypropylcellulose) (HPC)
[2] = dose: 100.0 mg/kg/injection, schedule: Q04DX003 (ip), vehicle: Klucel (hydroxypropylcellulose) (HPC)
[3] = dose: 200.0 mg/kg/injection, schedule: Q01DX009 (ip), vehicle: Klucel (hydroxypropylcellulose) (HPC)
[4] = dose: 200.0 mg/kg/injection, schedule: Q04DX003 (ip), vehicle: Klucel (hydroxypropylcellulose) (HPC)
[5] = dose: 400.0 mg/kg/injection, schedule: Q04DX003 (ip), vehicle: Klucel (hydroxypropylcellulose) (HPC)
[6] = dose: 100.0 mg/kg/injection, schedule: Q01DX001 (ip), vehicle: saline
[7] = dose: 200.0 mg/kg/injection, schedule: Q01DX001 (ip), vehicle: saline
[8] = dose: 400.0 mg/kg/injection, schedule: Q01DX001 (ip), vehicle: saline

Measured: T/C

NC(=O)c1[nH]cnc1/N=N/N(CCO)CCO
inactive: dose: 50.0 mg/kg/injection, schedule: Q01DX001 (ip), vehicle: water 102 % of control | dose: 50.0 mg/kg/injection, schedule: Q04DX003 (ip), vehicle: water 100 % of control | dose: 100.0 mg/kg/injection, schedule: Q01DX001 (ip), vehicle: water 97 % of control | dose: 100.0 mg/kg/injection, schedule: Q01DX009 (ip), vehicle: saline with Tween-80 105 % of control | dose: 100.0 mg/kg/injection, schedule: Q04DX003 (ip), vehicle: saline with Tween-80 101 % of control | dose: 100.0 mg/kg/injection, schedule: Q04DX003 (ip), vehicle: water 101 % of control | dose: 200.0 mg/kg/injection, schedule: Q01DX001 (ip), vehicle: water 103 % of control | dose: 200.0 mg/kg/injection, schedule: Q01DX009 (ip), vehicle: saline with Tween-80 105 % of control | dose: 200.0 mg/kg/injection, schedule: Q04DX003 (ip), vehicle: saline with Tween-80 101 % of control | dose: 200.0 mg/kg/injection, schedule: Q04DX003 (ip), vehicle: water 100 % of control | dose: 400.0 mg/kg/injection, schedule: Q01DX001 (ip), vehicle: water 101 % of control | dose: 400.0 mg/kg/injection, schedule: Q01DX009 (ip), vehicle: saline with Tween-80 100 % of control | dose: 400.0 mg/kg/injection, schedule: Q04DX003 (ip), vehicle: saline with Tween-80 98 % of control | dose: 400.0 mg/kg/injection, schedule: Q04DX003 (ip), vehicle: water 101 % of control

C=CCOc1cc(C)cc(C)c1C
inactive: dose: 50.0 mg/kg/injection, schedule: Q01DX009 (ip), vehicle: Klucel (hydroxypropylcellulose) (HPC) 95 % of control | dose: 85.0 mg/kg/injection, schedule: Q04DX003 (ip), vehicle: Klucel (hydroxypropylcellulose) (HPC) 90 % of control | [1] 94 % of control | [2] 112 % of control | dose: 135.0 mg/kg/injection, schedule: Q04DX003 (ip), vehicle: Klucel (hydroxypropylcellulose) (HPC) 90 % of control | [3] 89 % of control | [4] 88 % of control | dose: 300.0 mg/kg/injection, schedule: Q04DX003 (ip), vehicle: Klucel (hydroxypropylcellulose) (HPC) 90 % of control | [5] 120 % of control

CN(C)C1CCC2C3CC=C4CC(OC=O)CCC4(C)C3CCC21C (configuration not stated)
inactive: dose: 9.38 mg/kg/injection, schedule: Q01DX001 (ip), vehicle: other 101 % of control | dose: 18.75 mg/kg/injection, schedule: Q01DX001 (ip), vehicle: other 101 % of control | dose: 37.5 mg/kg/injection, schedule: Q01DX001 (ip), vehicle: other 100 % of control

CC(=O)OC(C)C(=O)C(Cl)(Cl)Cl (configuration not stated)
inactive: [1] 100 % of control | [2] 96 % of control | [3] 98 % of control | [4] 103 % of control | dose: 400.0 mg/kg/injection, schedule: Q01DX009 (ip), vehicle: Klucel (hydroxypropylcellulose) (HPC) 91 % of control | [5] 101 % of control

O=NN(C(=O)NC1CCCCC1Cl)C1CCCCC1Cl (configuration not stated)
inactive: dose: 8.0 mg/kg/injection, schedule: Q01DX001 (ip), vehicle: carboxymethylcellulose (CMC) 102 % of control | dose: 12.0 mg/kg/injection, schedule: Q01DX001 (ip), vehicle: carboxymethylcellulose (CMC) 106 % of control | dose: 18.0 mg/kg/injection, schedule: Q01DX001 (ip), vehicle: carboxymethylcellulose (CMC) 106 % of control | dose: 26.0 mg/kg/injection, schedule: Q01DX001 (ip), vehicle: carboxymethylcellulose (CMC) 106 % of control | dose: 40.0 mg/kg/injection, schedule: Q01DX001 (ip), vehicle: carboxymethylcellulose (CMC) 107 % of control | dose: 60.0 mg/kg/injection, schedule: Q01DX001 (ip), vehicle: carboxymethylcellulose (CMC) 98 % of control | dose: 93.0 mg/kg/injection, schedule: Q01DX001 (ip), vehicle: carboxymethylcellulose (CMC) 104 % of control | dose: 187.0 mg/kg/injection, schedule: Q01DX001 (ip), vehicle: carboxymethylcellulose (CMC) 102 % of control | dose: 375.0 mg/kg/injection, schedule: Q01DX001 (ip), vehicle: carboxymethylcellulose (CMC) 96 % of control

NC(CSSCC(N)=NCCCCCSC12CC3CC(CC(C3)C1)C2)=NCCCCCSC12CC3CC(CC(C3)C1)C2
inactive: dose: 2.5 mg/kg/injection, schedule: Q04DX002 (ip), vehicle: Klucel (hydroxypropylcellulose) (HPC) 100 % of control | dose: 5.0 mg/kg/injection, schedule: Q04DX002 (ip), vehicle: Klucel (hydroxypropylcellulose) (HPC) 100 % of control | dose: 10.0 mg/kg/injection, schedule: Q04DX002 (ip), vehicle: Klucel (hydroxypropylcellulose) (HPC) 100 % of control and 90 % of control

O/N=C/c1ccc(O)cc1
inactive: dose: 50.0 mg/kg/injection, schedule: Q01DX001 (ip), vehicle: saline 96 % of control | [6] 108 % of control | [7] 102 % of control

O=C(/C=C/c1cccnc1)/C=C/c1cccnc1
inactive: dose: 80.0 mg/kg/injection, schedule: Q01DX009 (ip), vehicle: Klucel (hydroxypropylcellulose) (HPC) 108 % of control

CC(COC(=O)c1ccc(N)cc1)NC1CCCCC1 (configuration not stated)
inactive: dose: 75.0 mg/kg/injection, schedule: Q01DX001 (ip), vehicle: other 96 % of control | dose: 150.0 mg/kg/injection, schedule: Q01DX001 (ip), vehicle: other 102 % of control

Clc1ccc(N/N=C(\Cc2ccccn2)c2ccccc2)cc1
inactive: dose: 100.0 mg/kg/injection, schedule: Q04DX003 (sc), vehicle: olive oil, sesame oil, peanut oil 101 % of control | dose: 200.0 mg/kg/injection, schedule: Q04DX003 (sc), vehicle: olive oil, sesame oil, peanut oil 110 % of control | dose: 400.0 mg/kg/injection, schedule: Q04DX003 (sc), vehicle: olive oil, sesame oil, peanut oil 103 % of control

C[N+]1(CC2CO2)CCOCC1 (configuration not stated)
inactive: dose: 75.0 mg/kg/injection, schedule: Q01DX001 (ip), vehicle: saline 109 % of control | dose: 150.0 mg/kg/injection, schedule: Q01DX001 (ip), vehicle: saline 106 % of control | dose: 300.0 mg/kg/injection, schedule: Q01DX001 (ip), vehicle: saline 96 % of control

O=C(O)c1ccc(N/N=C\c2cc(=O)[nH]c(=O)[nH]2)cc1
inactive: dose: 5.0 mg/kg/injection, schedule: Q01DX001 (ip), vehicle: saline 97 % of control | dose: 10.0 mg/kg/injection, schedule: Q01DX001 (ip), vehicle: saline 97 % of control | dose: 20.0 mg/kg/injection, schedule: Q01DX001 (ip), vehicle: saline 98 % of control | dose: 40.0 mg/kg/injection, schedule: Q01DX001 (ip), vehicle: saline 97 % of control

Cc1ccc(-n2c(O)c(N=Nc3ccccc3C)c(=O)n(-c3ccccc3)c2=S)cc1
inactive: dose: 100.0 mg/kg/injection, schedule: Q01DX001 (ip), vehicle: Klucel (hydroxypropylcellulose) (HPC) 94 % of control | dose: 200.0 mg/kg/injection, schedule: Q01DX001 (ip), vehicle: Klucel (hydroxypropylcellulose) (HPC) 104 % of control | dose: 400.0 mg/kg/injection, schedule: Q01DX001 (ip), vehicle: Klucel (hydroxypropylcellulose) (HPC) 99 % of control

CC(=O)Nc1cccc(-c2nnc(C3CCCC(NC(C)=O)C3)nn2)c1 (configuration not stated)
inactive: [6] 96 % of control | [7] 88 % of control | [8] 88 % of control

COC(=O)C1C(C(=O)OC)C1(c1ccccc1)c1ccccc1 (configuration not stated)
inactive: dose: 100.0 mg/kg/injection, schedule: Q01DX001 (ip), vehicle: steriod suspending solution 95 % of control | dose: 200.0 mg/kg/injection, schedule: Q01DX001 (ip), vehicle: steriod suspending solution 112 % of control | dose: 400.0 mg/kg/injection, schedule: Q01DX001 (ip), vehicle: steriod suspending solution 95 % of control

Cc1cc(Br)nc2ccccc12
inactive: [6] 92 % of control | [7] 89 % of control | [8] 97 % of control
